Data taken from ChEMBL document CHEMBL3885861, “Open TG-GATES”.

Species on record: Rattus norvegicus
Experiment: Open TG-GATES - Regimen: Single
Format: toxicity, organism-based, Sprague-Dawley
Set-up: regimen Single, gender Male, age 6 weeks
Details: in vivo, po, 0 mg/kg, route gavage, dose level Control; for APTT / Bas / Eos / Fbg / Hb / Ht / Lym / MCH / MCHC / MCV / Mono / Neu / PT / Plat / RBC / Ret / WBC: tissue Blood; for KIDNEY_L / KIDNEY_R / KIDNEY_TOTAL: tissue Kidney; for LIVER: tissue Liver; for ALP / ALT / AST / BUN / CRE / Ca / Cl / DBIL / GLC / IP / K / LDH / Na / PL / RALB / TBIL / TC / TG / TP / gamma-GTP: tissue Plasma

Compound `COC(=O)C1=C(C)NC(C)=C(C(=O)OC)C1c1ccccc1[N+](=O)[O-]` [NIFEDIPINE] has a TERMINAL_BW (3 h) of 197.5 g, an APTT (3 h) of 16.4 s and a Bas (3 h) of 0.2%. For the same compound, the Eos (3 h) was 0.8%, the Fbg (3 h) was 271 mg/dL and the Hb (3 h) was 13.3 g/dL. The Ht (3 h) was 41.5%, the Lym (3 h) was 74.2% and the MCH (3 h) was 20.8 pg. It also gave an MCHC (3 h) of 32.1%, an MCV (3 h) of 64.8 fL and a Mono (3 h) of 2.6%. For the same compound, the Neu (3 h) was 21.2%, the PT (3 h) was 14.8 s and the Plat (3 h) was 120 x10_4/uL. For the same compound, the RBC (3 h) was 641.4 x10_4/ul, the Ret (3 h) was 8.7% and the WBC (3 h) was 85.8 x10_2/uL. It also gave a KIDNEY_L (3 h) of 0.9 g, a KIDNEY_R (3 h) of 0.9 g and a KIDNEY_TOTAL (3 h) of 1.8 g. For the same compound, the LIVER (3 h) was 8.4 g, the ALP (3 h) was 1457.4 IU/L and the ALT (3 h) was 49.6 IU/L. It also gave an AST (3 h) of 81.8 IU/L, a BUN (3 h) of 9.4 mg/dL and a CRE (3 h) of 0.2 mg/dL. It also gave a Ca (3 h) of 10.6 mg/dL, a Cl (3 h) of 105.6 meq/L and a DBIL (3 h) of 0.012 mg/dL. For the same compound, the GLC (3 h) was 178.4 mg/dL, the IP (3 h) was 9.6 mg/dL and the K (3 h) was 4.4 meq/L. It also gave an LDH (3 h) of 90.8 IU/L, a Na (3 h) of 142 meq/L and a PL (3 h) of 128.2 mg/dL. The RALB (3 h) was 2.5 g/dL, the TBIL (3 h) was 0.044 mg/dL and the TC (3 h) was 70.2 mg/dL. The TG (3 h) was 42.4 mg/dL, the TP (3 h) was 5.2 g/dL and the gamma-GTP (3 h) was 1 IU/L. The TERMINAL_BW (6 h) was 197 g, the APTT (6 h) was 16.6 s and the Bas (6 h) was 0.2%. It also gave an Eos (6 h) of 1%, a Fbg (6 h) of 298 mg/dL and a Hb (6 h) of 13.5 g/dL. The Ht (6 h) was 42.2%, the Lym (6 h) was 71.2% and the MCH (6 h) was 21.1 pg. For the same compound, the MCHC (6 h) was 32%, the MCV (6 h) was 65.8 fL and the Mono (6 h) was 3.2%. For the same compound, the Neu (6 h) was 23.6%, the PT (6 h) was 15 s and the Plat (6 h) was 127.7 x10_4/uL. For the same compound, the RBC (6 h) was 641.2 x10_4/ul, the Ret (6 h) was 8.8% and the WBC (6 h) was 94.9 x10_2/uL. It also gave a KIDNEY_L (6 h) of 0.9 g, a KIDNEY_R (6 h) of 0.9 g and a KIDNEY_TOTAL (6 h) of 1.7 g. For the same compound, the LIVER (6 h) was 8.2 g, the ALP (6 h) was 1485.2 IU/L and the ALT (6 h) was 43.4 IU/L. The AST (6 h) was 71 IU/L, the BUN (6 h) was 9 mg/dL and the CRE (6 h) was 0.2 mg/dL. It also gave a Cl (6 h) of 107.4 meq/L, a DBIL (6 h) of 0.008 mg/dL and a GLC (6 h) of 177.8 mg/dL. It also gave an IP (6 h) of 9.7 mg/dL, a K (6 h) of 4.2 meq/L and an LDH (6 h) of 70.4 IU/L. The Na (6 h) was 144 meq/L, the PL (6 h) was 139.8 mg/dL and the RALB (6 h) was 2.5 g/dL. For the same compound, the TBIL (6 h) was 0.036 mg/dL, the TC (6 h) was 78.8 mg/dL and the TG (6 h) was 56 mg/dL. It also gave a TP (6 h) of 5.4 g/dL, a gamma-GTP (6 h) of 1 IU/L and a TERMINAL_BW (9 h) of 193.8 g. For the same compound, the APTT (9 h) was 16 s, the Bas (9 h) was 0% and the Eos (9 h) was 1%. For the same compound, the Fbg (9 h) was 297 mg/dL, the Hb (9 h) was 13.1 g/dL and the Ht (9 h) was 40.6%. It also gave a Lym (9 h) of 80.6%, an MCH (9 h) of 21 pg and an MCHC (9 h) of 32.4%. For the same compound, the MCV (9 h) was 65 fL, the Mono (9 h) was 2% and the Neu (9 h) was 15.8%. For the same compound, the PT (9 h) was 14.7 s, the Plat (9 h) was 120.3 x10_4/uL and the RBC (9 h) was 626.4 x10_4/ul. For the same compound, the Ret (9 h) was 9%, the WBC (9 h) was 65.5 x10_2/uL and the KIDNEY_L (9 h) was 0.9 g. The KIDNEY_R (9 h) was 0.9 g, the KIDNEY_TOTAL (9 h) was 1.7 g and the LIVER (9 h) was 7.4 g. It also gave an ALP (9 h) of 1438.2 IU/L, an ALT (9 h) of 35.6 IU/L and an AST (9 h) of 67 IU/L. It also gave a BUN (9 h) of 8.2 mg/dL, a CRE (9 h) of 0.2 mg/dL and a Ca (9 h) of 10.4 mg/dL. It also gave a Cl (9 h) of 106.6 meq/L, a DBIL (9 h) of 0.002 mg/dL and a GLC (9 h) of 162.8 mg/dL. The IP (9 h) was 10.2 mg/dL, the K (9 h) was 3.7 meq/L and the LDH (9 h) was 61.4 IU/L. The Na (9 h) was 143.4 meq/L, the PL (9 h) was 130.6 mg/dL and the RALB (9 h) was 2.5 g/dL. It also gave a TBIL (9 h) of 0.04 mg/dL, a TC (9 h) of 79 mg/dL and a TG (9 h) of 18.4 mg/dL. The TP (9 h) was 5.3 g/dL, the gamma-GTP (9 h) was 1.2 IU/L and the TERMINAL_BW (24 h) was 213.5 g. It also gave an APTT (24 h) of 16.3 s, a Bas (24 h) of 0% and an Eos (24 h) of 1%. It also gave a Fbg (24 h) of 285.8 mg/dL, a Hb (24 h) of 13.1 g/dL and a Ht (24 h) of 40.6%. For the same compound, the Lym (24 h) was 73.2%, the MCH (24 h) was 21.2 pg and the MCHC (24 h) was 32.3%. For the same compound, the MCV (24 h) was 65.5 fL, the Mono (24 h) was 3% and the Neu (24 h) was 21.8%. It also gave a PT (24 h) of 14.2 s, a Plat (24 h) of 118.4 x10_4/uL and an RBC (24 h) of 620 x10_4/ul. It also gave a Ret (24 h) of 8.7%, a WBC (24 h) of 87.2 x10_2/uL and a KIDNEY_L (24 h) of 0.9 g. The KIDNEY_R (24 h) was 0.9 g, the KIDNEY_TOTAL (24 h) was 1.8 g and the LIVER (24 h) was 9.6 g. The ALP (24 h) was 1663.2 IU/L, the ALT (24 h) was 44 IU/L and the AST (24 h) was 75 IU/L. For the same compound, the BUN (24 h) was 15.2 mg/dL, the CRE (24 h) was 0.2 mg/dL and the Ca (24 h) was 11 mg/dL. It also gave a Cl (24 h) of 106.6 meq/L, a DBIL (24 h) of 0.018 mg/dL and a GLC (24 h) of 187 mg/dL. It also gave an IP (24 h) of 8.3 mg/dL, a K (24 h) of 4.3 meq/L and an LDH (24 h) of 67.4 IU/L. The Na (24 h) was 145.6 meq/L, the PL (24 h) was 156.8 mg/dL and the RALB (24 h) was 2.7 g/dL. The TBIL (24 h) was 0.03 mg/dL, the TC (24 h) was 87.8 mg/dL and the TG (24 h) was 62.6 mg/dL. For the same compound, the TP (24 h) was 5.7 g/dL.
